According to ChEMBL document CHEMBL1201862, “PubChem BioAssay data set” (2004):
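Method: 48-hour compound exposure of cells in 96-well plates, five concentrations, linear interpolation of endpoints. Abbreviation: GI50, concentration required for 50% inhibition of growth.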 Active and inactive are the calls of the source. Rule as the data show it: active = GI50 up to about 1.1 µM and inactive = higher.

Legend:
Assay in all cases: growth of human tumour cells (NCI), 48 h
SF-539 = tested on: SF-539
SF-295 = tested on: SF-295
UACC-62 = tested on: UACC-62
COLO 205 = tested on: COLO 205
IGROV-1 = tested on: IGROV-1
KM12 = tested on: KM12
TK-10 = tested on: TK-10
EKVX = tested on: EKVX
786-0 = tested on: 786-0
MOLT-4 = tested on: MOLT-4
OVCAR-8 = tested on: OVCAR-8
RXF 393 = tested on: RXF 393
KM-20L2 = tested on: KM-20L2
HT-29 = tested on: HT-29
HCC 2998 = tested on: HCC 2998
OVCAR-5 = tested on: OVCAR-5
MCF7 = tested on: MCF7
MDA-MB-231 = tested on: MDA-MB-231
T47D = tested on: T47D
MDA-MB-435 = tested on: MDA-MB-435

Measured: GI50

CCN(CC)C(=S)N/N=C(\C)c1ccccc1O
inactive: SF-539 18 µM | SF-295 15.5 µM | UACC-62 10.9 µM | COLO 205 40.9 µM | IGROV-1 24.5 µM | KM12 15.5 µM | TK-10 62.1 µM | EKVX 36.4 µM | 786-0 26.2 µM | MOLT-4 8.59 µM | OVCAR-8 19.5 µM | RXF 393 25.6 µM | KM-20L2 21.4 µM | HT-29 19.5 µM | HCC 2998 13.4 µM

COC(=O)C(=O)C(C#N)c1ccc(Cl)c(Cl)c1 (stereo unspecified)
inactive: SF-539 > 100 µM | SF-295 > 100 µM | UACC-62 > 100 µM | IGROV-1 > 100 µM | KM12 > 100 µM | TK-10 > 100 µM | EKVX 64.3 µM | 786-0 > 100 µM | MOLT-4 > 100 µM | KM-20L2 > 100 µM | HT-29 > 100 µM

NC(=O)c1ncn(C2OC(CO)C(O)C2O)c1O (stereo unspecified)
inactive: SF-539 > 100 µM | SF-295 > 100 µM | UACC-62 > 100 µM | IGROV-1 > 100 µM | KM12 46.6 µM | TK-10 > 100 µM | EKVX > 100 µM | 786-0 > 100 µM | MOLT-4 72.1 µM | OVCAR-8 > 100 µM | RXF 393 > 100 µM | KM-20L2 34.8 µM | OVCAR-5 58.1 µM | HT-29 4.69 µM | HCC 2998 56.8 µM

CC(=O)NNc1nc(C)c(C(=O)/C=C/c2ccccc2Cl)s1
inactive: SF-539 > 100 µM | SF-295 > 100 µM | UACC-62 > 100 µM | COLO 205 > 100 µM | IGROV-1 > 100 µM | KM12 > 100 µM | TK-10 > 100 µM | EKVX > 100 µM | 786-0 > 100 µM | MOLT-4 > 100 µM | OVCAR-8 > 100 µM | RXF 393 > 100 µM | KM-20L2 > 100 µM | OVCAR-5 > 100 µM | HT-29 > 100 µM | HCC 2998 > 100 µM

Nc1ccc(C(=O)N/C(=C\C=C\c2ccco2)c2nc3c4c(ccc3[nH]2)C(=O)c2ccccc2C4=O)cc1
inactive: SF-539 17.2 µM | SF-295 31.7 µM | UACC-62 25 µM | COLO 205 61.1 µM | IGROV-1 21.4 µM | KM12 13.6 µM | TK-10 23.1 µM | EKVX 28.1 µM | 786-0 30.3 µM | MOLT-4 3.67 µM | OVCAR-8 32.2 µM | RXF 393 25.2 µM | KM-20L2 55.6 µM | OVCAR-5 > 100 µM | HT-29 49.7 µM | HCC 2998 44.9 µM

CC(C)c1cccc(C(C)C)c1NC(=O)C(=O)Cc1nc2ccc([N+](=O)[O-])cc2nc1O
inactive: SF-539 78.3 µM | SF-295 > 100 µM | UACC-62 24.5 µM | COLO 205 41.8 µM | IGROV-1 > 100 µM | KM12 13.5 µM | TK-10 > 100 µM | EKVX 44.2 µM | 786-0 > 100 µM | MOLT-4 74.1 µM | RXF 393 > 100 µM | KM-20L2 20.1 µM | OVCAR-5 > 100 µM | HT-29 > 100 µM | HCC 2998 39.6 µM

NC(CCCCN/C=C1/N=C(c2ccccc2)OC1=O)C(=O)O (stereo unspecified)
inactive: SF-539 > 100 µM | SF-295 > 100 µM | UACC-62 > 100 µM | COLO 205 > 100 µM | IGROV-1 > 100 µM | TK-10 > 100 µM | EKVX > 100 µM | 786-0 > 100 µM | MOLT-4 > 100 µM | OVCAR-8 > 100 µM | RXF 393 > 100 µM | KM-20L2 > 100 µM | OVCAR-5 > 100 µM | HT-29 > 100 µM | HCC 2998 > 100 µM

Cc1ccc2nc3c(C)cc(=O)cc-3sc2c1
inactive: SF-539 18.9 µM | SF-295 31.5 µM | UACC-62 14.1 µM | COLO 205 27.6 µM | IGROV-1 31.8 µM | KM12 22.9 µM | TK-10 22.7 µM | EKVX 28.2 µM | 786-0 18.7 µM | MOLT-4 12.6 µM | OVCAR-8 22.8 µM | KM-20L2 43.5 µM | OVCAR-5 27.9 µM | HT-29 36.2 µM | HCC 2998 26.9 µM

c1ccc(C2=NN(c3ccccc3)C3(S2)SC(c2ccccc2)(c2ccccc2)c2ccccc23)cc1 (stereo unspecified)
inactive: SF-539 > 100 µM | SF-295 > 100 µM | UACC-62 > 100 µM | COLO 205 > 100 µM | IGROV-1 > 100 µM | KM12 > 100 µM | TK-10 > 100 µM | EKVX > 100 µM | 786-0 > 100 µM | MOLT-4 > 100 µM | OVCAR-8 > 100 µM | KM-20L2 > 100 µM | OVCAR-5 > 100 µM | HT-29 > 100 µM | HCC 2998 > 100 µM

Cc1csc(-n2nc(C)cc2C)n1
inactive: SF-539 > 100 µM | SF-295 > 100 µM | UACC-62 > 100 µM | MCF7 > 100 µM | COLO 205 > 100 µM | IGROV-1 > 100 µM | KM12 > 100 µM | MDA-MB-231 > 100 µM | TK-10 > 100 µM | T47D > 100 µM | EKVX > 100 µM | 786-0 > 100 µM | MOLT-4 2.38 µM | OVCAR-8 > 100 µM | RXF 393 > 100 µM | OVCAR-5 > 100 µM | MDA-MB-435 > 100 µM | HT-29 > 100 µM | HCC 2998 > 100 µM

COc1ccc(/[N+]([O-])=C/c2ccccc2OC(=S)S)cc1
inactive: SF-539 22.6 µM | SF-295 33.8 µM | UACC-62 32.6 µM | MCF7 33.6 µM | COLO 205 30.1 µM | IGROV-1 27.6 µM | KM12 31 µM | MDA-MB-231 56.2 µM | TK-10 80.7 µM | T47D 41.8 µM | EKVX 40.2 µM | 786-0 24.9 µM | MOLT-4 37.7 µM | OVCAR-8 18.7 µM | RXF 393 52 µM | OVCAR-5 35.9 µM | MDA-MB-435 21.4 µM | HT-29 22.4 µM | HCC 2998 44.5 µM

O=[N+]([O-])c1ccc2[nH]c(=S)[nH]c(=S)c2c1
inactive: SF-539 > 100 µM | SF-295 > 100 µM | UACC-62 > 100 µM | MCF7 > 100 µM | COLO 205 > 100 µM | IGROV-1 > 100 µM | KM12 > 100 µM | MDA-MB-231 > 100 µM | TK-10 > 100 µM | T47D > 100 µM | EKVX > 100 µM | 786-0 > 100 µM | MOLT-4 > 100 µM | OVCAR-8 > 100 µM | RXF 393 > 100 µM | OVCAR-5 > 100 µM | MDA-MB-435 > 100 µM | HT-29 > 100 µM | HCC 2998 > 100 µM

Cc1ccc(NC(=O)c2nc(S)nc(N)c2-c2ccccc2C)cc1C
inactive: SF-539 > 100 µM | UACC-62 > 100 µM | COLO 205 > 100 µM | IGROV-1 > 100 µM | KM12 > 100 µM | TK-10 > 100 µM | EKVX > 100 µM | 786-0 > 100 µM | MOLT-4 > 100 µM | OVCAR-8 > 100 µM | RXF 393 > 100 µM | KM-20L2 > 100 µM | OVCAR-5 > 100 µM | HT-29 > 100 µM

CN(CCCNC(=O)c1nn(-c2ccc(Cl)cc2Cl)c2c1ccc1ccccc12)CCCNC(=O)c1nn(-c2ccc(Cl)cc2Cl)c2c1ccc1ccccc12
inactive: SF-539 1.76 µM | SF-295 1.67 µM | UACC-62 1.65 µM | MCF7 1.56 µM | COLO 205 1.91 µM | IGROV-1 1.74 µM | KM12 1.77 µM | MDA-MB-231 1.75 µM | TK-10 1.89 µM | T47D 1.81 µM | EKVX 1.69 µM | 786-0 1.54 µM | MOLT-4 1.61 µM | OVCAR-8 1.82 µM | RXF 393 1.66 µM | OVCAR-5 1.89 µM | MDA-MB-435 1.71 µM | HT-29 1.57 µM | HCC 2998 1.53 µM

O=C1C(c2ccccc2)=C(c2ccccc2)C(c2ccc(Cc3ccc(C4=C(c5ccccc5)C(=O)C(c5ccccc5)=C4c4ccccc4)cc3)cc2)=C1c1ccccc1
inactive: SF-539 > 100 µM | SF-295 69.5 µM | UACC-62 > 100 µM | COLO 205 > 100 µM | IGROV-1 > 100 µM | KM12 > 100 µM | TK-10 48.6 µM | EKVX > 100 µM | 786-0 > 100 µM | MOLT-4 > 100 µM | OVCAR-8 > 100 µM | RXF 393 > 100 µM | KM-20L2 > 100 µM | OVCAR-5 > 100 µM | HT-29 > 100 µM

COC(=O)/C=C/[C@H]1[C@H](C)N1S(=O)(=O)c1ccc(C)cc1 (stereo partly specified)
inactive: SF-539 37 µM | SF-295 > 100 µM | UACC-62 > 100 µM | MCF7 64.3 µM | COLO 205 > 100 µM | IGROV-1 > 100 µM | KM12 > 100 µM | MDA-MB-231 > 100 µM | TK-10 > 100 µM | T47D > 100 µM | EKVX > 100 µM | 786-0 82.4 µM | MOLT-4 70.5 µM | OVCAR-8 > 100 µM | RXF 393 > 100 µM | OVCAR-5 > 100 µM | MDA-MB-435 56.5 µM | HT-29 > 100 µM | HCC 2998 > 100 µM

CC1(C)C(c2ccccc2)=[N+]([O-])C(C)(C)N1O
inactive: SF-539 > 10 µM | SF-295 > 10 µM | UACC-62 > 10 µM | MCF7 > 10 µM | COLO 205 > 10 µM | IGROV-1 > 10 µM | KM12 > 10 µM | MDA-MB-231 > 10 µM | TK-10 > 10 µM | T47D > 10 µM | EKVX > 10 µM | 786-0 > 10 µM | MOLT-4 > 10 µM | OVCAR-8 > 10 µM | RXF 393 > 10 µM | OVCAR-5 > 10 µM | MDA-MB-435 > 10 µM | HT-29 > 10 µM | HCC 2998 > 10 µM
